Here are results for 1 compound from patent US20120276064A1, “METHODS AND COMPOSITIONS FOR REJUVENATION AND EXPANSION OF STEM CELLS” (priority 2011, published 2012).

In one test the test system is functional MuSCs. The test is described as follows: Limiting dilution analysis and model prediction of functional MuSCs. The arrangement: species or system mouse. The text has this: Limiting dilution analysis and model prediction. To calculate the effective number of functional MuSCs in any transplanted cell population, the transplant engraftment efficiency was related to the number of cells transplanted (across a range of transplanted cell numbers) using an exponential stem-cell limiting dilution model:
% engraftment=100%·[1-exp [(βsample)·(# cells transplantedsample)] [eqn. 1]
where β is an exponential coefficient fit from experimental data. This model fit well to experimental data from a variety of cell conditions (R^2=0.89-1.00; see FIG. 16C). Using this model, the number of functional MuSCs (e.g. defined as equivalent to freshly isolated young MuSCs) within any given population can be calculated:
# Functional MuSCssample=(βSample/βYng,Fresh)˜(# cellssample). [eqn. 2]
The number of functional MuSCs arising from the progeny of each MuSC initially seeded in the cell culture experiments can be predicted by taking into account the measured cell proliferation in culture (see FIG. 2D). The transplant engraftment percentage of the cell culture progeny from any starting MuSC cell number can be predicted using the measured cell proliferation data and the fit exponential model parameter β:
Predicted % engraftment=100%·[1-exp [(βsample)·(starting cell #)·(proliferation fold-changesample)]]. [Eqn. 3]

Test [1] concerns tibialis anterior muscle of notexin-injured old mice. The test is described as follows: In vivo force measurements after transplantation of cultured old MuSC progeny. The conditions noted are these: injured old muscles transplanted with progeny of SB-treated old MuSCs; two months post-injury. The arrangement: species or system mouse.

For the compound `Oc1ccc(-c2nc(-c3ccncc3)c(-c3ccc(F)cc3)[nH]2)cc1` [SB202190], in the test with functional MuSCs (old MuSCs on soft hydrogels with SB treatment, limiting dilution model), the “Proportion of functional MuSCs” value was 9%. Also, in the test with functional MuSCs (old MuSCs treated with SB, model prediction), the “Predicted transplant engraftment of the culture progeny of 10 old MuSCs” value is 76%. Also, in the test on functional MuSCs (old MuSCs, soft hydrogel + SB, one week, mathematical modeling), the “Increase in absolute number of functional stem cells relative to freshly isolated old MuSCs” value is on record as 7 fold. In the test with functional MuSCs (old MuSCs, soft hydrogel with vs without SB, limiting dilution model), the “Improvement in the proportion of functional MuSCs” value is reported as 10 fold. In addition, in test [1], the “Specific tetanus force versus pre-injury levels” value is “restored” and the “Specific twitch force versus pre-injury levels” value is given as “exceeded”.
